# Laboratory results from US11691984B2, “Compounds and methods for DCAF-mediated protein degradation” (The Scripps Research Institute, priority 2018, dated 2023).
# Assays:
# FLAG-FKBP12 = biological target: T1, FLAG-FKBP12 (Homo sapiens, UniProt P62942); experiment: Polyubiquitination of immunoprecipitated cytosolic FLAG-FKBP12 in HEK293T cells; format: cell-based; settings: KB02-SLF 5 μM, MG132 10 μM, 2 hours
# T1 construct: expressed in transfected cells; host or cells: HEK293T (lentiviral transduction, puromycin selection)
# Experimental: Cells were collected and lysed in 1% NP-40 lysis buffer (25 mM Tris-HCl pH 7.4, 150 mM NaCl, 10% glycerol, 1% Nonidet P-40) with complete protease inhibitor cocktail (Roche). Cells were vortexed and sonicated for 5 pulses (40%, 4). The supernatant was collected after centrifugation at 16,000 g for 10 min at 4° C. Protein concentration was determined by DC assay (Bio-Rad). Protein lysate was heated at 95° C. for 5 min in 1× Laemmli sample buffer. Proteins were resolved by 12% or 14% Novex Tris-Glycine Mini Gels (Invitrogen) and transferred to polyvinylidene fluoride (PVDF) membrane (0.2 Bio-Rad). The membrane was blocked with 5% BSA in TBST buffer (0.1% Tween 20, 20 mM Tris-HCl 7.6, 150 mM NaCl) at room temperature for 1 h. The antibody was diluted with fresh 5% BSA in TBST buffer (1:10000 dilution for FLAG, HA and β-Actin, 1:1000 dilution for others) and incubated with membrane (1 h room temperature for FLAG, HA and β-Actin, overnight 4° C. for others). Membrane was washed three times with TBST buffer and incubated with secondary antibody (1:5000 dilution in 5% BSA in TBST) at room temperature for 1 h. Membrane was washed three times with TBST buffer. The chemiluminescence signal in membrane was recorded after developing in ECL or ECL plus western blotting detection reagent using CL-XPosure film (Thermo Scientific). Relative band intensities were quantified using ImageJ. […]
# [1] = biological target: T2, HA-DCAF16 and FLAG-FKBP12_NLS (Homo sapiens, UniProt P62942+Q9NXF7); experiment: Co-immunoprecipitation of HA-DCAF16 with FLAG-FKBP12_NLS (ternary complex) in HEK293T cells; format: cell-based; settings: MG132 10 μM
# T2 construct: expressed in transfected cells; host or cells: HEK293T stably expressing FLAG-FKBP12_NLS, transiently transfected with HA-DCAF16 (pRK5)
# Experimental: (§1) Cells were collected and lysed in 1% NP-40 lysis buffer (25 mM Tris-HCl pH 7.4, 150 mM NaCl, 10% glycerol, 1% Nonidet P-40) with complete protease inhibitor cocktail (Roche). Cells were vortexed and sonicated for 5 pulses (40%, 4). The supernatant was collected after centrifugation at 16,000 g for 10 min at 4° C. Protein concentration was determined by DC assay (Bio-Rad). Protein lysate was heated at 95° C. for 5 min in 1× Laemmli sample buffer. Proteins were resolved by 12% or 14% Novex Tris-Glycine Mini Gels (Invitrogen) and transferred to polyvinylidene fluoride (PVDF) membrane (0.2 Bio-Rad). The membrane was blocked with 5% BSA in TBST buffer (0.1% Tween 20, 20 mM Tris-HCl 7.6, 150 mM NaCl) at room temperature for 1 h. The antibody was diluted with fresh 5% BSA in TBST buffer (1:10000 dilution for FLAG, HA and β-Actin, 1:1000 dilution for others) and incubated with membrane (1 h room temperature for FLAG, HA and β-Actin, overnight 4° C. for others). Membrane was washed three times with TBST buffer and incubated with secondary antibody (1:5000 dilution in 5% BSA in TBST) at room temperature for 1 h. Membrane was washed three times with TBST buffer. The chemiluminescence signal in membrane was recorded after developing in ECL or ECL plus western blotting detection reagent using CL-XPosure film (Thermo Scientific). Relative band intensities were quantified using ImageJ.
# (§2) Cells were collected and lysed in 1% NP-40 lysis buffer with complete protease inhibitor cocktail on ice for 10 min, followed by 5 pulses of sonication (40%, 4). After centrifugation at 16,000 g for 10 min at 4° C., the supernatant was collected. FLAG affinity gel (20 μL slurry per sample) was incubated with protein lysates at 4° C. for 1 h and washed four times with IP washing buffer. The affinity gel was heated at 95° C. for 10 min in 2× Laemmli sample buffer, followed by western blot analysis.
# [2] = system: HA-DCAF16 and FLAG-FKBP12_NLS; experiment: as above; format: cell-based, human; settings: KB02-SLF, cells pre-treated with MG132
# Experimental: as §1, §2
# FLAG-FKBP12_NLS [3] = biological target: T3, FLAG-FKBP12_NLS (Homo sapiens, UniProt P62942); experiment: Western blot of FLAG-FKBP12_NLS in DCAF16+/+ and DCAF16−/− HEK293 clones; format: cell-based; design: expressed in transfected cells; host or cells: HEK293 DCAF16+/+ and DCAF16-/- clones (lentiviral pCDH-CMV-MCS-EF1-Puro)
# Experimental: (§3) DCAF16 CRISPR knockout HEK293 cell pools were generated by Synthego using nucleofection of Cas9-gRNA ribonucleoprotein (RNP) complex. Editing efficiency 48 h post nucleofection of cell pool was 88%. HEK293 editing cell pools were subjected to single cell sorting in The Flow Cytometry Core Facility at Scripps Research. Individual cell clone was grown in 96-well plate until the cells were confluent. To confirm the editing in DCAF16 gene, genomic DNAs from each clone were extracted using PureLink Genomic DNA Mini Kit (Invitrogen). DCAF16 gene was amplified by PCR and confirmed by DNA sequencing. Indel analysis was performed using ICE analysis from Synthego.
# To confirm DCAF16 knockout at the protein level, lentivirus containing FLAG-FKBP12_NLS was used to infect three wild type DCAF16 clones (clone 6, 17, 18) and three DCAF16 knockout clones (clone 3, 4, 22). Clone 6 stably expressing FLAG-FKBP12_NLS was grown in heavy SILAC DMEM medium for 5 generations. The other clones stably expressing FLAG-FKBP12_NLS were grown in light SILAC DMEM medium for 5 generations. All 6 clones were treated with 5 μM KB02-SLF and 10 μM MG132 for 2 h. Cells were collected and analyzed for FLAG-FKBP12_NLS associating proteins using the same method described below. Proteins from clone 6 (heavy labeled) were combined with the other clones (light labeled) separately and identified by LC-MS/MS.
# as §1
# Target sequence in this assay (P62942 with tags, fused parts or gaps): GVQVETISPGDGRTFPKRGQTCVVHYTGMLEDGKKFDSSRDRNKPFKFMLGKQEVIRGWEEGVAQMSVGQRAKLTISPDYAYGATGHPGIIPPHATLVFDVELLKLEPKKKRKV
# FLAG-FKBP12_NLS [4] = biological target: T3, FLAG-FKBP12_NLS; experiment: Western blot of stably expressed FLAG-FKBP12_NLS in MDA-MB-231 cells; format: cell-based; design: expressed in transfected cells; host or cells: HEK293T, MDA-MB-231 and HEK293 DCAF16+/+ and DCAF16-/- clones (lentiviral pCDH-CMV-MCS-EF1-Puro); settings: 1 μM, 8 hours
# Experimental: FLAG-FKBP12 or FLAG-FKBP12_NLS lentivirus was generated by co-transfection of FLAG-FKBP12 or FLAG-FKBP12_NLS, pCMV-dR8.2 and pMD2.G into HEK 293T cells using FuGene 6 transfection reagent (Promega). Virus-containing medium were collected 48 h after transfection, filtered with […] filter, and used to transduce HEK293T and MDA-MB-231 cells in the presence of 10 μg/mL polybrene (Santa Cruz). 72 h after transduction, puromycin (2 μg/mL) was added to cells. HEK293T cells stably expressing FLAG-FKBP12 or FLAG-FKBP12_NLS were obtained after puromycin selection for 7 days. HEK293T cells stably expressing pCDH empty vector were generated in parallel as control.
# as §1
# Target sequence in this assay (P62942 whole entry): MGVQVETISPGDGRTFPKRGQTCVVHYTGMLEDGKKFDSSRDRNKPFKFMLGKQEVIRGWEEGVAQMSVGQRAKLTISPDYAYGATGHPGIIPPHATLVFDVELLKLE
# BRD4 [5] = biological target: T4, BRD4 (Homo sapiens, UniProt O60885); experiment: Western blot of endogenous BRD4 in HEK293T cells; format: cell-based; settings: HEK293T, 24 hours
# T4 construct: degradation of endogenous BRD4 in HEK293T cells; endogenous in cells; host or cells: HEK293T (A10, A16); HEK293 DCAF16+/+ and DCAF16-/- clones (A11)
# Experimental: as §1
# BRD4 [6] = biological target: T4, BRD4; experiment: Western blot of BRD4 in DCAF16−/− HEK293 cells; format: cell-based; settings: 40 μM KB02-JQ1, 24 hours
# Experimental: as §3
# Cells were collected and lysed in 1% NP-40 lysis buffer (25 mM Tris-HCl pH 7.4, 150 mM NaCl, 10% glycerol, 1% Nonidet P-40) with complete protease inhibitor cocktail (Roche). Cells were vortexed and sonicated for 5 pulses (40%, 4). The supernatant was collected after centrifugation at 16,000 g for 10 min at 4° C. Protein concentration was determined by DC assay (Bio-Rad). Protein lysate was heated at 95° C. for 5 min in 1× Laemmli sample buffer. […] The chemiluminescence signal in membrane was recorded after developing in ECL or ECL plus western blotting detection reagent using CL-XPosure film (Thermo Scientific). Relative band intensities were quantified using ImageJ.
# T2 sequence (Q9NXF7 whole entry): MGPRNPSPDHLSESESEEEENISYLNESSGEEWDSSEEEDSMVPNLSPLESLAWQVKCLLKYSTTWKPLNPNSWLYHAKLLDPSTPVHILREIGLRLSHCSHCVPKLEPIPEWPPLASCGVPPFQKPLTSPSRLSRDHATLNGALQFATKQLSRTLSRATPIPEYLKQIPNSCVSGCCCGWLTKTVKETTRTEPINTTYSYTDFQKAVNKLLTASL
# T2 sequence (P62942 2-108): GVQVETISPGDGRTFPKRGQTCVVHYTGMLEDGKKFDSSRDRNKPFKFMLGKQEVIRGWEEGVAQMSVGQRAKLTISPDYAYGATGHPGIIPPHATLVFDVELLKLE
# T2 sequence (Q16531 whole entry partner): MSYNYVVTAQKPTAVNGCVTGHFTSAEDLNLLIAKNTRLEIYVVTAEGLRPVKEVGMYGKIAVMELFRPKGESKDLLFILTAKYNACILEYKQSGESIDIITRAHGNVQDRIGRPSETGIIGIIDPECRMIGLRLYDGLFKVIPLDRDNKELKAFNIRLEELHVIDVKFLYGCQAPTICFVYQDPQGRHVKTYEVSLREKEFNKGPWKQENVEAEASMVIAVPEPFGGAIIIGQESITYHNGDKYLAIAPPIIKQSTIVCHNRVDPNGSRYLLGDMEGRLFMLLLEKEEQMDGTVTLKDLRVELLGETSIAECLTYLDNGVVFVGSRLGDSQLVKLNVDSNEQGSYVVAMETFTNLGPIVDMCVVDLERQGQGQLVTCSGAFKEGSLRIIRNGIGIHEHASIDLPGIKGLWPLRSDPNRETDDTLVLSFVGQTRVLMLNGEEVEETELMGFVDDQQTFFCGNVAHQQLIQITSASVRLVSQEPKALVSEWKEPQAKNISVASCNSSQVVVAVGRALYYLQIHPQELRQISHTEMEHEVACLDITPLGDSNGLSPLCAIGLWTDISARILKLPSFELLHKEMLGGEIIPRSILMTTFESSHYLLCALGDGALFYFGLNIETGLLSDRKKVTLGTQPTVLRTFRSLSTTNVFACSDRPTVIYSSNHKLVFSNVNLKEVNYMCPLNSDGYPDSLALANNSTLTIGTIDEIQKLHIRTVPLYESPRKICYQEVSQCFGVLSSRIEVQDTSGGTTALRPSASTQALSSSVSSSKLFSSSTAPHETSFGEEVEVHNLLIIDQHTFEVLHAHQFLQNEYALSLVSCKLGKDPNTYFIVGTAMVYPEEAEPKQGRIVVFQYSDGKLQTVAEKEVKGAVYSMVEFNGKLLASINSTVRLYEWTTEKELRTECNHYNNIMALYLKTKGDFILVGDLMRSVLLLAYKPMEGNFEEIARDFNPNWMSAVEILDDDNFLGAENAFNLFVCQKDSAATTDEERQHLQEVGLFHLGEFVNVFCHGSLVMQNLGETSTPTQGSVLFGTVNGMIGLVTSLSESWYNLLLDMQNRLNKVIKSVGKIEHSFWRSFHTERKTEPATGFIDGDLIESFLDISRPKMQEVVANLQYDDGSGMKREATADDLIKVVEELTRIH
# T1 sequence (P62942 whole entry): as the sequence (P62942 whole entry) above
concentration for degradation of BRD4 (BRD4 [5]),BRD4 degradation in DCAF16−/− cells (BRD4 [6]),SMILES,polyubiquitination of cytosolic FKBP12 (FLAG-FKBP12),"co-immunoprecipitation of HA-DCAF16 with FLAG-FKBP12_NLS ([1]; 5 μM, 2 hours)","conversion of HA-DCAF16 to higher molecular weight (HMW) form ([1]; increasing concentrations of KB02-SLF, 2 h)",co-immunoprecipitation of C173S- and C178S-DCAF16 with FKBP12_NLS [2],co-immunoprecipitation of C177S- and C179S-DCAF16 with FKBP12_NLS [2],"degradation of FKBP12_NLS in DCAF16−/− clones (FLAG-FKBP12_NLS [3]; HEK293 clones 3, 4, 22, 0.2-5 μM, 8 h)","degradation of FKBP12_NLS in DCAF16+/+ clones (FLAG-FKBP12_NLS [3]; HEK293 clones 6, 17, 18, 0.2-5 μM, 8 h)","FKBP12_NLS degradation in DCAF16−/− cells expressing C58S-, C173S- or C178S-DCAF16 (FLAG-FKBP12_NLS [3]; KB02-SLF 1.5 μM, 8 hours)","FKBP12_NLS degradation in DCAF16−/− cells with recombinant HA-DCAF16 (FLAG-FKBP12_NLS [3]; KB02-SLF 1.5 μM, 8 hours)",degradation of FLAG-FKBP12_NLS in MDA-MB-231 cells (FLAG-FKBP12_NLS [4]),degradation of BRD4 (BRD4 [5])
,,"CCC(C)(C)C(=O)C(=O)N1CCCC[C@H]1C(=O)O[C@H](CCc1ccc(OC)c(OC)c1)c1cccc(NC(=O)CCOCCOCCNC(=O)COc2ccc3c(c2)CCCN3C(=O)CCl)c1 [KB02-SLF, (R)-1-(3-(3-(2-(2-(2-((1-(2-chloroacetyl)-1,2,3,4-tetrahydroquinolin-6-yl)oxy)acetamido)ethoxy)ethoxy)propanamido)phenyl)-3-(3,4-dimethoxyphenyl)propyl (S)-1-(3,3-dimethyl-2-oxopentanoyl)piperidine-2-carboxylate]",not cytosolic FKBP12,HA-DCAF16 and DDB1 co-immunoprecipitated with FLAG-FKBP12_NLS,Only a modest fraction of HA-DCAF16 was converted to this HMW,co-immunoprecipitated with FKBP12_NLS in KB02-SLF-treated cells,not C177S- and C179S-DCAF16,not in any of the three DCAF16−/− clones,supported the degradation of FKBP12_NLS in all three DCAF16+/+ clones,supported KB02-SLF-induced degradation of FKBP12_NLS,restored KB02-SLF-induced FKBP12_NLS degradation,degrades FLAG-FKBP12_NLS,
20 to 40 µM,substantially blocked,"Cc1sc2c(c1C)C(c1ccc(Cl)cc1)=N[C@@H](CC(=O)NCCOCCOCCNC(=O)COc1ccc3c(c1)CCCN3C(=O)CCl)c1nnc(C)n1-2 [KB02-JQ1, (S)-2-((1-(2-chloroacetyl)-1,2,3,4-tetrahydroquinolin-6-yl)oxy)-N-(2-(2-(2-(2-(4-(4-chlorophenyl)-2,3,9-trimethyl-6H-thieno[3,2-f][1,2,4]triazolo[4,3-a][1,4]diazepin-6-yl)acetamido)ethoxy)ethoxy)ethyl)acetamide]",,,,,,,,,,,"promoted, in a concentration-dependent manner, the degradation of BRD4"
